For seven compounds, MIC results are on record in DBAASP.

Molecules are shown by their SMILES. In brackets after ≈: the same amount, converted by molar mass. Several values for one entry are separate records, joined by “and”; a condition that tells them apart may be missing. Equal values may be shown once.

Test systems include Serratia rubidaea X01; Escherichia coli; Staphylococcus aureus; Escherichia coli BL21; Candida albicans 820; Escherichia coli ML-35p; Pseudomonas aeruginosa 9.
Common to all, as to test: ≥ marks a high value that may be exact or a test limit, other limits are often not marked, values filed in µg/mL are converted to µM
In experiment [1] the test system is Enterococcus faecalis 981.
Experiment [2] has as its system Pseudomonas aeruginosa 11053.
The subject of experiment [3] is Staphylococcus aureus ATCC 25923.
The subject of experiment [4] is Escherichia coli ATCC 25922.
Experiment [5] has as its system Bacillus licheniformis X39.
The subject of experiment [6] is Rhodococcus rhodochrous X15.
The subject of experiment [7] is Psychrobacter faecalis X29.
Experiment [8] concerns Staphylococcus carnosus KHS.
In experiment [9] the test system is Candida albicans ATCC 10231.
The test system of experiment [10] is Bifidobacterium longum subsp. infantis.
The test system of experiment [11] is Staphylococcus aureus ATCC 6538P.
The test system of experiment [12] is Pseudomonas aeruginosa PAO1.
Experiment [13] has as its system Staphylococcus aureus ATCC BAA-41.
The test system of experiment [14] is Staphylococcus epidermidis.
The test system of experiment [15] is Listeria monocytogenes EGD.
The subject of experiment [16] is Pseudomonas aeruginosa H1030.
Experiment [17] relates to Escherichia coli ESBL 64771.
Experiment [18] has as its system Enterococcus faecium mic80.
Experiment [19] relates to Enterococcus faecalis W61950.
Experiment [20] relates to Klebsiella pneumoniae ESBL 63575.
In experiment [21] the test system is Pseudomonas aeruginosa 213.
The subject of experiment [22] is Pseudomonas aeruginosa 198.
For experiment [23], the system named is Escherichia coli ESBL 63103.
The subject of experiment [24] is Pseudomonas aeruginosa LES400.
Experiment [25] deals with Enterobacter cloacae 218R.
In experiment [26] the test system is Stenotrophomonas maltophilia ATCC 13637.
Experiment [27] deals with Enterococcus faecalis ATCC 29212.
The subject of experiment [28] is Staphylococcus aureus C623.
Experiment [29] has as its system Enterococcus faecalis f43559.
The test system of experiment [30] is Klebsiella pneumoniae ESBL 61962.
The subject of experiment [31] is Pseudomonas aeruginosa PAO1 H103.
Experiment [32] deals with Pseudomonas aeruginosa H1027.
Experiment [33] has as its system Enterococcus faecium t62764.

By MIC is commonly meant the smallest concentration in the dilution series that meets the test's criterion for growth inhibition. Read a low MIC as a more susceptible organism. As to `CC[C@H](C)[C@@H]1NC(=O)[C@H](CCCCN)NC(=O)[C@@H](NC(=O)[C@H](Cc2ccccc2)NC(=O)[C@H](CC(C)C)NC(=O)[C@@H](NC(=O)[C@@H]2CCCN2C(=O)[C@@H](NC(=O)[C@@H](NC(=O)[C@H](CCCCN)NC(=O)[C@H](CO)NC(=O)[C@H](C)NC(=O)[C@@H](NC(=O)[C@H](CC(N)=O)NC(=O)[C@H](CC(C)C)NC(=O)[C@H](CC(C)C)NC(=O)[C@@H](NC(=O)[C@H](CO)NC(=O)[C@H](CC(C)C)NC(=O)[C@@H](N)Cc2ccccc2)[C@@H](C)O)C(C)C)C(C)C)C(C)C)[C@@H](C)O)CSSC[C@@H](C(=O)O)NC(=O)[C@H](CCCCN)NC(=O)[C@H](CCCCN)NC(=O)[C@H]([C@@H](C)O)NC1=O` [FLSTLLNVASKVVPTLFCKITKKC], the MIC in experiment [1] is 9 µM (≈ 23.9 µg/mL); in [2], not below 75 µM; in experiment [3], 9 µM (≈ 23.9 µg/mL); in [4], 150 µM (≈ 398 µg/mL); in experiment [5], 9 µM (≈ 23.9 µg/mL); in [6], 2.3 µM (≈ 6.1 µg/mL). For the same compound, the MIC in experiment [7] came out at 9 µM (≈ 23.9 µg/mL); in the experiment on Serratia rubidaea X01, 9 µM (≈ 23.9 µg/mL); in experiment [8], 9 µM (≈ 23.9 µg/mL); in experiment [9] it was 150 µM (≈ 398 µg/mL).

With `CC[C@H](C)[C@H](NC(=O)[C@@H]1CCCN1C(=O)[C@H](CCC(N)=O)NC(=O)[C@@H]1CCCN1C(=O)[C@@H](NC(=O)[C@H](CCC(N)=O)NC(=O)[C@H](CCC(N)=O)NC(=O)[C@H](CCSC)NC(=O)[C@H](CC(C)C)NC(=O)[C@@H]1CCCN1C(=O)[C@H](CCC(N)=O)NC(=O)[C@H](CC(C)C)NC(=O)[C@H](CC(C)C)NC(=O)[C@@H]1CCCN1C(=O)[C@H](CC(C)C)NC(=O)[C@@H]1CCCN1C(=O)[C@H](CC(C)C)NC(=O)[C@@H](N)Cc1cnc[nH]1)C(C)C)C(=O)O` [HLPLPLLQPLMQQVPQPI], the MIC against Escherichia coli was more than 1450 µM; in experiment [10], not below 1450 µM; in the experiment with Staphylococcus aureus, more than 1450 µM.

As to `CC[C@H](C)[C@H](NC(=O)[C@H](CCC(N)=O)NC(=O)[C@@H](N)Cc1cnc[nH]1)C(=O)N[C@@H](Cc1ccc(O)cc1)C(=O)N1CCC[C@H]1C(=O)N[C@H](C(=O)N[C@H](C(=O)N[C@@H](CCC(N)=O)C(=O)N1CCC[C@H]1C(=O)N[C@@H](CC(C)C)C(=O)O)[C@@H](C)O)C(C)C` [HQIYPVTQPL], the minimal inhibitory concentration (MIC) is more than 2510 µM in the experiment with Escherichia coli, not below 2510 µM in experiment [10] and more than 2510 µM with Staphylococcus aureus.

Turning to `CC[C@H](C)[C@H](NC(=O)[C@H](CCCCN)NC(=O)[C@H](CCCCN)NC(=O)[C@H](Cc1ccccc1)NC(=O)[C@H](CCCCN)NC(=O)[C@H](CCCCN)NC(=O)[C@H](Cc1c[nH]c2ccccc12)NC(=O)[C@@H](N)CCCCN)C(=O)NCC(=O)N[C@@H](C)C(=O)N[C@H](C(=O)N[C@@H](CC(C)C)C(=O)N[C@@H](CCCCN)C(=O)N[C@@H](CCCCN)C(=O)N[C@@H](CC(C)C)C(=O)O)C(C)C` [KWKKFKKIGAVLKKL], the MIC is 1.41 µM (≈ 2.57 µg/mL) with Escherichia coli BL21; 16 µM (≈ 29 µg/mL) in experiment [11]; 1.41 µM (≈ 2.57 µg/mL) in experiment [12]; 16 µM (≈ 29 µg/mL) in experiment [13]; 0.5 µM (≈ 0.908 µg/mL) in experiment [14].

In the case of `CC[C@H](C)[C@H](NC(=O)[C@H](CCCCN)NC(=O)[C@H](CCCCN)NC(=O)[C@H](Cc1ccccc1)NC(=O)[C@H](CC(C)C)NC(=O)[C@H](CCCCN)NC(=O)[C@H](Cc1c[nH]c2ccccc12)NC(=O)[C@@H](N)CCCCN)C(=O)NCC(=O)N[C@@H](CCCCN)C(=O)N[C@H](C(=O)N[C@@H](CC(C)C)C(=O)N[C@@H](CCCCN)C(=O)N[C@@H](CCCCN)C(=O)N[C@@H](CC(C)C)C(=O)O)C(C)C` [KWKLFKKIGKVLKKL], the MIC was 1 µM (≈ 1.86 µg/mL) against Escherichia coli BL21; 5.66 µM (≈ 10.5 µg/mL) in [11]; 1.41 µM (≈ 2.63 µg/mL) in [12]; 16 µM (≈ 29.7 µg/mL) in [13]; 0.25 µM (≈ 0.464 µg/mL) in experiment [14].

Regarding `CC[C@H](C)[C@@H]1NC(=O)[C@H](CCCN=C(N)N)NC(=O)[C@@H]2CSSC[C@@H]3NC(=O)[C@H](C(C)C)NC(=O)CNC(=O)[C@H](Cc4ccccc4)NC(=O)[C@H](Cc4ccc(O)cc4)NC(=O)[C@H](C(C)C)NC(=O)[C@H](CCC(=O)O)NC(=O)[C@H](CC(C)C)NC(=O)CNC(=O)[C@H](CC(C)C)NC(=O)[C@H](CSSC[C@H](NC(=O)[C@H](CCCN=C(N)N)NC(=O)[C@H](CCCN=C(N)N)NC(=O)[C@H](C)NC(=O)[C@H](CC(C)C)NC(=O)[C@H](CCCN=C(N)N)NC(=O)CNC(=O)[C@H](Cc4cnc[nH]4)NC(=O)[C@H](CC(C)C)NC(=O)[C@H](Cc4ccccc4)NC3=O)C(=O)N[C@H](C(=O)N[C@@H](CCCN=C(N)N)C(=O)O)CSSC[C@H](NC(=O)[C@@H](NC(=O)[C@@H](N)CCCN=C(N)N)[C@@H](C)CC)C(=O)N[C@@H](CCCN=C(N)N)C(=O)N2)NC(=O)[C@H](CCCN=C(N)N)NC(=O)CNC1=O` [RICRCRIGRCLGLEVYFGVCFLHGRLARRCCR], the MIC in the experiment with Candida albicans 820 is 4 µM and 7.5 µM; against Escherichia coli ML-35p it was 1.7 µM and 2.9 µM; in experiment [15], 2.1 µM and 1.9 µM.

For the compound `NCCCC[C@H](NC(=O)[C@H](CCCCN)NC(=O)[C@H](Cc1c[nH]c2ccccc12)NC(=O)[C@H](Cc1c[nH]c2ccccc12)NC(=O)[C@H](CCCN=C(N)N)NC(=O)[C@H](CCCCN)NC(=O)[C@@H](N)Cc1c[nH]c2ccccc12)C(=O)N[C@@H](Cc1c[nH]c2ccccc12)C(=O)N[C@@H](CCCN=C(N)N)C(=O)O` [WKRWWKKWR], the MIC in [16] is 21.2 µM (≈ 31 µg/mL); in [17] it was 1.37 µM (≈ 2 µg/mL); in experiment [18], 11 µM (≈ 16 µg/mL); in experiment [19], not below 87 µM; in experiment [20], 21.2 µM (≈ 31 µg/mL); in experiment [3], 2.74 µM (≈ 4 µg/mL). Besides, the MIC in [21] is not below 43.2 µM; in [22], 21.2 µM (≈ 31 µg/mL); in experiment [23], 11 µM (≈ 16 µg/mL); in experiment [24], 11 µM (≈ 16 µg/mL); in [25], not below 43.2 µM; in experiment [26], 0.685 µM (≈ 1 µg/mL). In addition, the MIC in experiment [27] was 43.2 µM (≈ 63 µg/mL); in [28], 2.74 µM (≈ 4 µg/mL); in [29], not below 87 µM; in experiment [30], not below 87 µM; in experiment [31], 11 µM (≈ 16 µg/mL); in [32], 2.74 µM (≈ 4 µg/mL). Further, the MIC in [33] is 2.74 µM (≈ 4 µg/mL); against Pseudomonas aeruginosa 9, 21.2 µM (≈ 31 µg/mL).
